A word on the EC50: it is the concentration at which the effect is half-maximal.

Results on 17 molecules are retold here after US12157736B2, “Spiro-lactam NMDA modulators and methods of using same” (Tenacia Biotechnology (Hong Kong) Co., Limited, priority 2016, dated 2024).

One experiment has as its target T1, NMDAR2A (Homo sapiens, UniProt Q12879).
T1 construct: expressed in transfected cells; host or cells: HEK cells (membrane extract)
The experiment can be described thus: NMDAR agonist assay, [3H]MK-801 binding, NMDAR2A expressing HEK cell membranes. The experiment is classed as biochemical. Particulars: 50 μM glutamate; for Emax: read-out: NMDAR2A: % maximal [3H]MK-801 binding relative to 1 mM glycine; for EC50: read-out: NMDAR2A: log EC50 (converted). The method, then: (§1) Assays were conducted as described by Moskal et al., “GLYX-13: a monoclonal antibody-derived peptide that acts as an N-methyl-D-aspartate receptor modulator,” Neuropharmacology, 49, 1077-87, 2005. These studies were designed to determine if the test compounds act to facilitate NMDAR activation in NMDAR2A, NMDAR2B, NMDAR2C or NMDAR2D expressing HEK cell membranes as measured by increases in [^3H]MK-801 binding.
(§2) In the assay, 300 μg of NMDAR expressing HEK cell membrane extract protein was preincubated for 15 minutes at 25° C. in the presence of saturating concentrations of glutamate (50 μM) and varying concentrations of test compound (1×10^−15M−1×10^−7M), or 1 mM glycine. Following the addition of […] of [^3H]MK-801 (22.5 Ci/mmol), reactions were again incubated for 15 minutes at 25° C. (nonequilibrium conditions). Bound and free [^3H]MK-801 were separated via rapid filtration using a Brandel apparatus.
(§3) In analyzing the data, the DPM (disintegrations per minute) of [^3H]MK-801 remaining on the filter were measured for each concentration of test compound or for 1 mM glycine. The DPM values for each concentration of a ligand (N=2) were averaged. The baseline value was determined from the best fit curve of the DPM values modeled using the GraphPad program and the log(agonist) vs. response (three parameters) algorithm was then subtracted from all points in the dataset. The % maximal [3H]MK-801 binding was then calculated relative to that of 1 mM glycine: all baseline subtracted DPM values were divided by the average value for 1 mM glycine. The EC50 and % maximal activity were then obtained from the best fit curve of the % maximal [3H]MK-801 binding data modelled using the GraphPad program and the log(agonist) vs. response (three parameters) algorithm.
(§4) The tables below summarize the results for the wild type […] NMDAR2A, NMDAR2B, NMDAR2C, and NMDAR2D, and whether the compound is not an agonist (−), is an agonist (+), or is a strong agonist (++), where column A is based on the % maximal [3H]MK-801 binding relative to 1 mM glycine (−=0; <100%=+; and >100%=++); and column B is based on log EC50 values (0=−; ≥1×10^−9 M (e.g., −8)=+; and <1×10^−9 M (e.g., −10)=++).

The target of the next experiment is T2, NMDAR2B (Homo sapiens, UniProt Q13224).
T2 construct: expressed in transfected cells; host or cells: HEK cells (membrane extract)
Briefly: NMDAR agonist assay, [3H]MK-801 binding, NMDAR2B expressing HEK cell membranes. Particulars: 50 μM glutamate; for Emax: read-out: NMDAR2B: % maximal [3H]MK-801 binding relative to 1 mM glycine; for EC50: read-out: NMDAR2B log EC50 (converted). The experiment is classed as biochemical. The method, then: as §1, §2, §3, §4

The structures appear in SMILES notation.

T2 sequence (Q13224 27-1484, species assumed, other chains not shown): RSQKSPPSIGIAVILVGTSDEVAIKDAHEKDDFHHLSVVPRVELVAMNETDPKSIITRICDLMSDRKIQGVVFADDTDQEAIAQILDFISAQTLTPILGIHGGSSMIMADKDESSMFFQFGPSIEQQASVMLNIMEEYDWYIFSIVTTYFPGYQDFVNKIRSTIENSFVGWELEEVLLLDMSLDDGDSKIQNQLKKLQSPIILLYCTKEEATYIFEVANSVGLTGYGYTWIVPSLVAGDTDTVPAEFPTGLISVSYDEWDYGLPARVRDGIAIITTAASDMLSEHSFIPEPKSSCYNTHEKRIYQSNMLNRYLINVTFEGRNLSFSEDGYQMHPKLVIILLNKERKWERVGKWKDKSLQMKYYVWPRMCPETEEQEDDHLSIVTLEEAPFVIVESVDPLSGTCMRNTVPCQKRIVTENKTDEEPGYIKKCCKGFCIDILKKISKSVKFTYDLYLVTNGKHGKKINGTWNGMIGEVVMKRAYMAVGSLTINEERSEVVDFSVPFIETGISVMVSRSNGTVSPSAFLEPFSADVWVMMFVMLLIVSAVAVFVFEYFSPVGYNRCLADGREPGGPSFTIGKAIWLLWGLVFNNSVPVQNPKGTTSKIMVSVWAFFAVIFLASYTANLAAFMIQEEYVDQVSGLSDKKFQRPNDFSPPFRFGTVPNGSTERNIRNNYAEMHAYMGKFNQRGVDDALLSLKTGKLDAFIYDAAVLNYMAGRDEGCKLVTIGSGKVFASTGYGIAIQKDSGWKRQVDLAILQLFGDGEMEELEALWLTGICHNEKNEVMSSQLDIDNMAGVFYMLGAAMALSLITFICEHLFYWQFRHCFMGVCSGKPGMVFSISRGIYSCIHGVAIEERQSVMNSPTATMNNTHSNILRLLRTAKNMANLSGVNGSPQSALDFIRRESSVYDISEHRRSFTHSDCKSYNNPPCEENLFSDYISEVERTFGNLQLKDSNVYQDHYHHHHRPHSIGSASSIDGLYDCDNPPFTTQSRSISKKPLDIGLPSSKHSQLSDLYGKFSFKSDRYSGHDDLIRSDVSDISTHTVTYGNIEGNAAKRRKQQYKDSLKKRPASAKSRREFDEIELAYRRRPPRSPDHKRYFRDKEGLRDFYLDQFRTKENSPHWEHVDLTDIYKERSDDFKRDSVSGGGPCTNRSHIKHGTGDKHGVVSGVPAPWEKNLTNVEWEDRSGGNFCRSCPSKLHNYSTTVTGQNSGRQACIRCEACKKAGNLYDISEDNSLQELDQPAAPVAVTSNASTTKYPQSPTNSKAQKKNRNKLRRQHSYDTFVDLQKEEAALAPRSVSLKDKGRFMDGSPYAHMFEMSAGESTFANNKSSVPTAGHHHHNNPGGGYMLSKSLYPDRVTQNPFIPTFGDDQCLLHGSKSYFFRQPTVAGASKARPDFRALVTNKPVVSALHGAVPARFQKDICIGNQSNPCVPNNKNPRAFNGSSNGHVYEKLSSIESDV
T1 sequence (Q12879 23-1464, species assumed, other chains not shown): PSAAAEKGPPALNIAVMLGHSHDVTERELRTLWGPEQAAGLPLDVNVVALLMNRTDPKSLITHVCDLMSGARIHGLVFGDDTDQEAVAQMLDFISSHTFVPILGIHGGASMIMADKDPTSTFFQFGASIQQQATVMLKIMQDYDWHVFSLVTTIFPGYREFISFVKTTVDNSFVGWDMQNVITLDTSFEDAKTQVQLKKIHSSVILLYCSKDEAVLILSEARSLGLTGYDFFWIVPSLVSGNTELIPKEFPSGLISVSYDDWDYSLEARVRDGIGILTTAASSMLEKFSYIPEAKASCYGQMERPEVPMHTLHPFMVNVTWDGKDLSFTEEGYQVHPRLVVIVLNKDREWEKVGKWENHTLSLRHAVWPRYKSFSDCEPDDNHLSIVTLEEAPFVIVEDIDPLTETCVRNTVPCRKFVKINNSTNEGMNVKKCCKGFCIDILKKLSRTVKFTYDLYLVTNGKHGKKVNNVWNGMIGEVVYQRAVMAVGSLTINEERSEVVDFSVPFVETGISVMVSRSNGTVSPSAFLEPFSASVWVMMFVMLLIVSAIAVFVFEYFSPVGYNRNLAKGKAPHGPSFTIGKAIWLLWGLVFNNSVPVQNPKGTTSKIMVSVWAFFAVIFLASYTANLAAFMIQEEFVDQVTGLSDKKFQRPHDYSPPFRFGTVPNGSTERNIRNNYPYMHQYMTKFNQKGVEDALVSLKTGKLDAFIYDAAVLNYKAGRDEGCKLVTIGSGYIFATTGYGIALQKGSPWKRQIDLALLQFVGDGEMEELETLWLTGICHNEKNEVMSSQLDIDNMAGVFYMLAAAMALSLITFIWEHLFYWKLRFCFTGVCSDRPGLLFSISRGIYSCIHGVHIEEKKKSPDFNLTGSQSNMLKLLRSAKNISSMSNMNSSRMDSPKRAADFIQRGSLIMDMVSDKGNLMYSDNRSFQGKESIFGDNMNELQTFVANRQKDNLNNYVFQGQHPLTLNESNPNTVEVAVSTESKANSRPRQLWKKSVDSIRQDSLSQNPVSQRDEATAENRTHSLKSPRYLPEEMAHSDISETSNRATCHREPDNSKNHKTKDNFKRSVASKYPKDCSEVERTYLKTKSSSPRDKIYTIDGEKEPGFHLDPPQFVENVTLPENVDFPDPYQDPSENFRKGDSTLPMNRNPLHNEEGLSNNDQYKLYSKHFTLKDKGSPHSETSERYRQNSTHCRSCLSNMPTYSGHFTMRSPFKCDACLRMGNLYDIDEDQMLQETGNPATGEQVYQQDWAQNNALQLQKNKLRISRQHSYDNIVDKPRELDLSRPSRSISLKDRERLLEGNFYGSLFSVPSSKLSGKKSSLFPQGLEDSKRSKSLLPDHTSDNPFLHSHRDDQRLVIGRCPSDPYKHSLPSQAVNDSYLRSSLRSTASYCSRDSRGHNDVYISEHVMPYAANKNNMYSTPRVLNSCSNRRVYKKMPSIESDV

`C[C@@H](O)[C@@H](C(=O)N(C)C)N1CC2(CCNC(=O)C2)C1=O` (single isomer, unassigned) [CD]: the Emax at NMDAR2A is below 100%.
Consider `COc1ccc(CN2CC3(CCN(C)C(=O)C3)C2=O)cc1` (single isomer, unassigned) [CJ, 2-(4-methoxybenzyl)-7-methyl-2,7-diazaspiro[3.5]nonane-1,6-dione], for which, on NMDAR2B, the Emax is above 100%.
In the case of `COc1ccc(CN2CC3(CCNC(=S)C3)C2=S)cc1` (single isomer, unassigned) [CO, 2-(4-methoxybenzyl)-2,7-diazaspiro[3.5]nonane-1,6-dithione], on NMDAR2B, the EC50 was above 100 nM and the Emax worked out at 0%.
On to `COc1ccc(CN2CC3(CCNC(=S)C3)C2=S)cc1` (single isomer, unassigned) [CP, 2-(4-methoxybenzyl)-2,7-diazaspiro[3.5]nonane-1,6-dithione], for which the Emax on NMDAR2B was below 100%.
On to `COc1ccc(CN2CC3(CCN(CC(C)C)C(=O)C3)C2=O)cc1` (single isomer, unassigned) [CS, 7-isobutyl-2-(4-methoxybenzyl)-2,7-diazaspiro[3.5]nonane-1,6-dione], for which the Emax on NMDAR2B is above 100%.
As to `COc1ccc(CN2CC3(CCN(CC(C)C)C(=O)C3)C2=O)cc1` (single isomer, unassigned) [CT, 7-isobutyl-2-(4-methoxybenzyl)-2,7-diazaspiro[3.5]nonane-1,6-dione], on NMDAR2B, the EC50 is above 100 nM and the Emax turned out to be 0%.
`O=C1CC2(CCN1)CN(Cc1ccccc1)C2=O` (single isomer, unassigned) [CU, 2-benzyl-2,7-diazaspiro[3.5]nonane-1,6-dione]: on NMDAR2A, the Emax worked out at 0% and the EC50 was above 100 nM.
`O=C1CC2(CCN1)CN(Cc1ccccc1)C2=O` (single isomer, unassigned) [CV, 2-benzyl-2,7-diazaspiro[3.5]nonane-1,6-dione]: the Emax on NMDAR2A is below 100%.
For `CCN1CCC2(CC1=O)CN(Cc1ccccc1)C2=O` (single isomer, unassigned) [CY, 2-benzyl-7-ethyl-2,7-diazaspiro[3.5]nonane-1,6-dione], the EC50 on NMDAR2B was above 100 nM.
As to `NC(=O)CN1CC2(CCNC(=O)C2)C1=O` (single isomer, unassigned) [DC, 2-(1,6-dioxo-2,7-diazaspiro[3.5]nonan-2-yl)acetamide], the Emax on NMDAR2A is below 100%.
On to `NC(=O)CN1CC2(CCNC(=O)C2)C1=O` (single isomer, unassigned) [DD, 2-(1,6-dioxo-2,7-diazaspiro[3.5]nonan-2-yl)acetamide], for which, on NMDAR2A, the Emax was 0% and the concentration for a half-maximal effect (EC50) is above 100 nM.
`CN1CC2(CCNC(=O)C2)C1=O` (single isomer, unassigned) [DG, 2-methyl-2,7-diazaspiro[3.5]nonane-1,6-dione]: at NMDAR2B, the EC50 was above 100 nM and the Emax is 0%.
Turning to `CN1CC2(CCNC(=O)C2)C1=O` (single isomer, unassigned) [DH, 2-methyl-2,7-diazaspiro[3.5]nonane-1,6-dione], the Emax at NMDAR2B was above 100%.
Take `CC1CC(=O)N(C)C12CN(CC(N)=O)C2=O` (single isomer, unassigned) [DI, 2-(5,8-dimethyl-1,6-dioxo-2,5-diazaspiro[3.4]octan-2-yl)acetamide]: on NMDAR2A, the Emax is below 100%.
Turning to `CC1CC(=O)N(C)C12CN(CC(N)=O)C2=O` (single isomer, unassigned) [DJ, 2-(5,8-dimethyl-1,6-dioxo-2,5-diazaspiro[3.4]octan-2-yl)acetamide], on NMDAR2A, the Emax stood at 0% and the EC50 was above 100 nM.
As to `CC1CC(=O)N(c2ccc(F)cc2)C12CN([C@H](C(N)=O)[C@@H](C)O)C2=O` (single isomer, unassigned) [DK], the EC50 on NMDAR2B is above 100 nM.
`CC1C(O)C(=O)N(C)C12CN(Cc1ccccc1)C2=O` (single isomer, unassigned) [DM, 2-benzyl-7-hydroxy-5,8-dimethyl-2,5-diazaspiro[3.4]octane-1,6-dione]: the half-maximal effective concentration (EC50) on NMDAR2B is above 100 nM.
